In patent publication US6342490B1, “Pharmaceutical composition containing uscharidin or its analogues” (Phyto Corporation Limited, priority 1997, dated 2002):

Experiments:
cancer cell lines = assay: NCI in vitro cell screening (SRB, dose-response); assay type: cell-based; conditions: NCI panel, 48 hours
Excerpt: Uscharin was obtained as in Example 2 and was subjected to in vitro cell screening at the National Cancer Institute (NCI), USA in respect of a panel of cancel cell types organised into subpanels representing leukemia, lung cancers, colon cancer, cancer of the central nervous system, melanoma, ovarian cancer, renal cancer, and in some cases prostate cancer and breast cancer also.
The standard NCI methodology which was employed is described in Michael R Boyd, Principles and Practices of Oncology, Vol, 3, No. 10 (October 1989) and Monks A. et al., Journal of the National Cancer Institute, Vol. 83, No. 11, (Jun. 5, 1991).
The Dose-Response Curve is created by plotting the Calculated Percent Growth (PG) of each cell line against the log(10) of the corresponding drug concentration. The cell line curves are grouped by cell type, or subpanel. Mean Log(10) concentrations for all cell lines tested are calculated at three points: where the test compound achieved 50% inhibition of cell growth (GI50), where the test compound achieved 0% cell growth or total growth inhibition (TGI), and where the test compound achiveved 50% cell kill or 50% lethal concentration (LC50). Reference lines are shown at the percent growth values of +50 (GI50), 0 (TGI) and −50 (LC50).
Percentage Growth (PG)—of the compound on a cell line is currently calculated according to one of the following expressions:
If (Mean OD(test)−Mean OD(tzero)>=0,
PG=100×(Mean OD(test)−Mean OD(tzero)/(mean OD(ctrl)−Mean OD(tzero)
If (Mean OD(test−Mean OD(tzero)<0,
PG=100×(Mean OD(test)−Mean OD(tzero)/Mean OD(tzero)
Mean OD (tzero)=The average of optical density measurements of SRB-derived colour just before exposure of cells to the test compound.
Mean OD (test)=The average of optical density measurements of SRB-derived colour after 48 hours […] of cells to the test compound.
Mean OD (ctrl)=The average of optical density measurements of SRB-derived colour after 48 hours […] of cells to the test compound.

SCC-1 cells = assay: Nude mice injected with SCC-1 human tumour cells, drug treatment; assay type: in vivo, mice (BALB/c nude); conditions: nude mice with SCC-1 cells; versus control
Protocol: The SCCI cells (human tumour cell line) where grown (1×10^5/ml seeding density) in 25 ml RPMI 1640 (10% foetal calf serum, 5% glutamine) in 75 cm^2 tissue culture flasks. The cells were harvested at log growth phase (5 days approximately) and washed once in saline before injection into the mice.
The “nude” mice (BALB/c nude) are reared and contained within a sealed isolator. The mice were injected with 1×10^7 cells subcut on the back, right hand side near the shoulder blades. After 7 days the mice were split randomly into the study groups (10-15 animals per group). Each was then treated with a different regime, the variable being time between injections and dose of drug at each injection, control groups were also included in the overall plan of the experiement.
During the trial a daily check was made on the animals and any animal removed if the tumour size became too large (>5-7% total body weight) or if the animal is showing signs of distress. Additional to this the tumour should be assessed every 3-4 days by an independent observer and the result recorded. Once an animal is removed from the study the tumour size, volume and weight was determined and the tumour stored for further cytological study. The reason for the animals removal from the study was also recorded, if this was not due to tumour size. […]

tumour = conditions: cited from earlier work
primate tumour cells = conditions: cited from earlier work

Row | SMILES | inhibitory effect on the growth of cancer cell lines in vitro (cancer cell lines) | reduction in percentage mortality due to the cancer cells (SCC-1 cells) | in vivo tumour-inhibiting activity (tumour) | cytotoxic activity against primate tumour cells (primate tumour cells)
1 | C[C@@H]1CC(=O)[C@]2(O)O[C@@H]3C[C@@]4(C=O)[C@@H](CC[C@@H]5[C@@H]4CC[C@]4(C)[C@@H](C6=CC(=O)OC6)CC[C@]54O)C[C@H]3O[C@@H]2O1 [Uscharidin, uscharidin] | inhibitory effect |  |  | 
2 | C[C@@H]1C[C@@]2(N=CCS2)[C@]2(O)O[C@@H]3C[C@@]4(C=O)[C@@H](CC[C@@H]5[C@@H]4CC[C@]4(C)[C@@H](C6=CC(=O)OC6)CC[C@]54O)C[C@H]3O[C@@H]2O1 [Uscharin, uscharin] | inhibitory effect | up to 45% |  | 
3 | C[C@H]1O[C@H]2O[C@@H]3C[C@@H]4CC[C@@H]5C(CC[C@]6(C)[C@@H](C7=CC(=O)OC7)CC[C@]56O)[C@@]4(C=O)C[C@H]3O[C@@]2(O)[C@H](O)[C@@H]1O (stereo partly shown) [calotoxin] | inhibitory effect |  |  | 
4 | C[C@@H]1C[C@H](O)[C@]2(O)O[C@@H]3C[C@@]4(C=O)[C@@H](CC[C@@H]5[C@@H]4CC[C@]4(C)[C@@H](C6=CC(=O)OC6)CC[C@]54O)C[C@H]3O[C@@H]2O1 [calotropin] |  |  | no in vivo tumour-inhibiting activity | 
5 | C[C@]12CC[C@H](O)C[C@@H]1CC[C@@H]1[C@@H]2CC[C@]2(C)[C@@H](C3=CC(=O)OC3)CC[C@]12O [uzarigenin] |  |  | no in vivo tumour-inhibiting activity | cytotoxic activity
